Laboratory results from article PMC12416277, “Phytochemical alkaloids orchestrate immunometabolism against viral infections” (National Science Review, 2025).
Like-named read-outs stand apart in the source and are kept apart here.

Tests used:
VSV [1] = format: cell-based, vesicular stomatitis virus (VSV)
H1N1 [2] = assay: In vivo H1N1 infection mouse model; parameters: species or system C57/BL6J mice; conditions: mice
STING = assay: DMXAA-stimulated WT or Sting-/- MEF cells, Ifnb1, Ifi44, Ccl5, Cxcl10 mRNA; format: cell-based, mouse
A549 cells = assay: Transcriptome analysis (RNA-seq, GO, GSEA) of compound-treated A549 cells; conditions: WT A549 cells, compared among Tet, Fan, Cep, Bbm
[3] = tested on: NPC1 and STING in lysosomal microdomains; assay: Lysosome immunoprecipitation with density gradient ultracentrifugation (LysoIP-DEG) in HepG2 cells; format: cell-based
Procedure: Figure 5. The dual functions of Tet to resist viral entry and activate antiviral immunity through the NPC1/STING axis. (a, b) Confocal analysis of Bio-Tet with CD63 (a) or NPC1 (b) in A549 cells, scale bar: 10 μm. (c) Binding affinity analysis of NPC1 with itraconazole, U18666A, or Tet was determined by SPR. (d, e) CETSA (d) and DARTS (e) analysis of NPC1 with Tet in HepG2 cells. (f) Streptavidin-covered beads with biotin, Bio-Tet, Bio-Tet + Tet were incubated with cell lysates. As indicated, the levels of NPC1 protein in bound proteins (IP) and total proteins (Input) were determined using immunoblotting. (g) Viral mRNA expression in siNPC1-transfected cells treated with Tet. (h) Viral mRNA expression in sgRNA-EV, sgRNA Npc1, and sgRNA Npc1 cells transfected with Flag-NPC1 treated with Tet. (i) Ifit1 and Ifit2 mRNA expression in sgRNA-EV, sgRNA Npc1, and sgRNA Npc1 cells transfected with Flag-NPC1 stimulated with DMXAA and Tet. (j) Schematic of LysoIP-DEG. (k) Immunoblotting analysis of the indicated proteins in LysoIP-DEG in Tet-treated HepG2 cells. (l) Schematic model of NPC1/STING axis-mediated viral inhibition by Tet. […] P values were calculated using one-way ANOVA (g, h, i). […]
The LysoIP-DEG was performed as previously described with minor modifications. […] The collected samples were dissolved in 50 µL 2 × SDS loading buffer and then assessed through western blotting analysis.

H1N1 [4] = assay: Time-of-drug-addition assay, H1N1 in A549 cells; format: cell-based, influenza virus A (H1N1); conditions: pre-treatment, co-treatment and post-treatment
VSV [5] = format: cell-based, vesicular stomatitis virus (VSV); remark: listed apart in the source
[6] = H1N1, intranasal administration

## COc1ccc2cc1Oc1ccc(cc1)C[C@H]1c3cc(c(OC)cc3CCN1C)Oc1c(OC)c(OC)cc3c1[C@H](C2)N(C)CC3 [Tet, tetrandrine]
VSV [1]; MβCD pretreatment (cholesterol depleted)
  antiviral effect on VSV entry: abolished
VSV [1]; cholesterol supplementation using MβCD-cholesterol
  antiviral effect on VSV entry: restored inhibition
H1N1 [2]; H1N1
  NP protein expression in lung tissue: inhibited
  alveolar damage and inflammatory infiltrations in lung tissues (H&E): significantly alleviated
H1N1 [2]; [6]
  body weight recovery: expedited body weight recovery
  survival rates: improved survival rates
STING; DMXAA treated Sting-/- MEF cells
  Ifnb1, Ifi44, Ccl5 and Cxcl10 gene expression: abolished
STING; DMXAA treated WT MEF cells
  Ifnb1, Ifi44, Ccl5 and Cxcl10 gene expression: increased
A549 cells
  expression of antiviral immune-related genes: higher expression
[3]
  NPC1 and STING expression in lysosomal microdomains: enhanced NPC1 and STING expression in lysosomal microdomains after 6 hours
H1N1 [4]
  H1N1 infection: effectively suppressed
VSV [5]
  VSV infection: effectively suppressed
